Experimental findings from paper PMC8742467, “Therapeutical interference with the epigenetic landscape of germ cell tumors: a comparative drug study and new mechanistical insights” (Clinical Epigenetics, 2022) are described below.

Common to all, as to format: cell-based, Human
In assay [1] the test system is prostate cancer (PCa) cell lines. Nature of the assay: XTT cell viability assay, PCa cell lines. The procedure:
(§1) The […] (XTT) assays were performed as described previously. In summary, for GCT and fibroblast cell lines 5 × 10^3 cells (3 × 10^3 for UC, PCa and RCC cell lines) per 96-well were seeded and different drug concentrations (see Additional file 2: Fig. S2, Additional file 3: Fig. S3) or corresponding solvents were added to the cells the following day. For drug details see Additional file 12: Table S2 C. Each condition was analyzed in four technical replicates and EC50 values were calculated by GraphPad Prism v8.

Assay [2] concerns urothelial carcinoma (UC) cell lines. Nature of the assay: XTT cell viability assay, UC cell lines. The procedure: as §1
In a further assay the test system is YST (GCT72). Kind of assay: Flow cytometry apoptosis (Annexin V/PI), YST. The settings on record: EC50, 16 h. The procedure: (§2) For Annexin V/PI staining, cells were washed with Annexin V Binding Buffer before being resuspended in 70 µl Annexin V Binding Buffer and 2.5 μl Annexin V FITC-conjugate (both Miltenyi Biotec, Bergisch Gladbach, Germany) and 15 µg PI (Sigma-Aldrich, Taufkirchen, Germany) and incubated in the dark at room temperature for 15 min. 500 µl of Annexin V Binding Buffer was added before measurement. For the cell cycle analysis, cells were washed with PBS (phosphate buffered saline), fixed by ice cold 70% ethanol and stained with 2 µg/ml PI and 200 µg/ml RNaseA (Quiagen, Hilden, Germany 100 mg/ml) in PBS shortly before every measurement. At least 5 × 10^4 cells were counted and analyzed using the MACSQuant software v 2.13.0.
Background: In flow cytometry, cells or beads pass a laser one at a time.

The subject of the next assay is CC (JAR). Nature of the assay: Flow cytometry apoptosis (Annexin V/PI), CC. The settings on record: EC50, 16 h. The procedure:
as §2

Assay [3] relates to H2AK119ub in 2102EP cells. Kind of assay: Western blot of histone extracts. The settings on record: after 48 h of treatment. As to the method: Western Blots were performed as described previously. In total, 20 µg of whole cell protein lysates or 3 µg of histone extract were used for western blotting. β-Actin was used as housekeeper and loading control for whole cell lysates. Western blots of histone extracts were stained with Coomassie Brilliant Blue R 250 (Roth, Karlsruhe, Germany) and total H3 or H4 antibody to verify equal loading. For antibody details, see supplement (Additional file 12: Table S2 D). The ChemiDoc Imaging System (Bio-Rad Laboratories, Feldkirchen, Germany) was used for detection. Pixel density was analyzed using the ‘Image Lab’ software provided by Bio-Rad.

A further assay deals with fibroblast control cells. Kind of assay: Flow cytometry apoptosis (Annexin V/PI), fibroblasts. The settings on record: EC50, 16 h. The procedure:
as §2

Setting [4] is: Homo sapiens; mean of three cell lines, 48 h.
Where [5] appears, read: Homo sapiens, 48 h, mean of three cell lines.

One may read the EC50 as the concentration at which the effect is half-maximal. Turning to `CN1C(=O)[C@@]23C[C@]4([C@]56C[C@@]78SS[C@@](CO)(C(=O)N7[C@H]5Nc5ccccc56)N(C)C8=O)c5ccccc5N[C@@H]4N2C(=O)[C@]1(CO)SS3` [Chaetocin], the EC50 in assay [1] (setting [4]) was 233 nM; in assay [2] (setting [4]), 99.6 nM.

Regarding `CCCc1cc(C)[nH]c(=O)c1CNC(=O)c1cc(-c2ccnc(N3CCN(C)CC3)c2)cc2c1cnn2C(C)C` [GSK343], in the assay with YST (GCT72), the “apoptosis induction in GCT72” value was “negligible”. In the assay with CC (JAR), the “apoptosis induction in JAR” value is “negligible”.

In the case of `O=C1C(=Cc2cccnc2)C(=O)c2ccccc21` [PRT4165], in assay [3], the “H2AK119ub by western blot” value is listed as “decreased H2AK119ub”. In the assay on fibroblast control cells, the “apoptosis induction in fibroblast control cells” value is recorded as “only a weak apoptosis induction”.

For the molecule `Cn1cc(CNCC2CCN(c3ncc(C(=O)NO)cn3)CC2)c2ccccc21` [Quisinostat], the EC50 was 22.2 nM in assay [1] (setting [5]); 22.2 nM in assay [1] (mean of three cell lines, 48 h); 17.2 nM in assay [2] (setting [5]); 17.2 nM in assay [2] (mean of three cell lines, 48 h).
